According to US20200271654A1, “Quantifying MGMT Protein For Optimal Cancer Therapy” (Expression Pathology, Inc., priority 2017, published 2020):

Tested on: advanced colorectal cancer (CRC)
Test: Survival of advanced colorectal cancer patients treated with temozolomide, stratified by tumor MGMT protein level (SRM mass spectrometry)
Type: in vivo
Conditions: for median progression-free survival (PFS): treated with temozolomide
Text: 24 patients from Fondazione IRCCS Istituto Nazionale dei TumoriVia Venezian, Milan, Italy, were identified with advanced colorectal cancer (CRC). Tumors were surgically removed prior to treatment and archived as formalin-fixed, paraffin-embedded (FFPE) tissue and all were histologically colorectal cancer. All 24 patients were subsequently treated with temozolomide.
Archived formalin-fixed, paraffin-embedded tissue sections were obtained from patients with advanced CRC treated with temozolomide (n=24). A board-certified pathologist marked the tumor areas. Based on the markups, tumor cells were laser microdissected and solubilized to tryptic peptides using the Liquid Tissue process. In each liquefied sample, multiple protein biomarkers including MGMT were quantified by selected reaction monitoring (SRM) mass spectrometry (MS). A mixture of stable isotope-labeled heavy peptides including the MGMT fragment peptide TTLDSPLGK was added prior to MS analysis. Each sample was analyzed in triplicate. […] The Mantel-Cox log-rank and Gehan-Breslow-Wilcoxon tests were used for survival comparisons.

Structure (SMILES): Cn1nnc2c(C(N)=O)ncn2c1=O [temozolomide]
- median progression-free survival (PFS) (CRC patients with MGMT levels above cutoff of 200 amol/μg): 1.6 months
- median progression-free survival (PFS) (CRC patients with MGMT protein levels below cutoff of 200 amol/μg (n=11), p=0.0611 vs above cutoff): 4.3 months
- ratio of median progression-free survival, MGMT below cutoff vs above cutoff (cutoff 200 amol/μg, temozolomide-treated CRC patients): approximately 2.5 times
